The values below come from patent US11077100B2, “Tetrahydroquinoline derivatives as P2X7 receptor antagonists” (RaQualia Pharma Inc., priority 2017, dated 2021).

Usually IC50 stands for the concentration that inhibits the measured activity by half.

One test concerns the target human P2X7 (Homo sapiens (Human), UniProt Q99572). In words: Human P2X7 functional assay (Ca2+ influx, Fluo-4, FDSS). It is filed as cell-based. The following applies: antagonistic activity with respect to the human P2X7 receptor; BzATP final concentration 80 microM. A digest of the protocol:
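Ca2+ influx was triggered with BzATP (80 μM final) after a 10-min room-temperature compound preincubation and monitored with Fluo-4 (ex 480/em 540 nm) on FDSS. The cells were HEK293 stably carrying FLAG-tagged human P2X7. Duplicate-averaged 7-point dose-responses gave IC50s.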

The target in the next test is rat P2X7 (Rattus norvegicus (Rat), UniProt Q64663). In words: Rat P2X7 functional assay (Ca2+ influx, Fluo-4, FDSS). It is filed as cell-based. The following applies: HEK293 cells stably expressing rat P2X7; BzATP final 10 microM; 7-point dose-response; read-out: Antagonistic activities with respect to the rat P2X7 receptor (IC50). A digest of the protocol:
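IC50 derived from 7-point dose-response in duplicate, measuring inhibition of BzATP-evoked (final 10 microM) intracellular Ca2+ increase by Fluo-4 fluorescence on FDSS. Rat P2X7-HEK293 cells were exposed to compound for 10 min in the dark beforehand.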

Chain of human P2X7 (Q99572 whole entry): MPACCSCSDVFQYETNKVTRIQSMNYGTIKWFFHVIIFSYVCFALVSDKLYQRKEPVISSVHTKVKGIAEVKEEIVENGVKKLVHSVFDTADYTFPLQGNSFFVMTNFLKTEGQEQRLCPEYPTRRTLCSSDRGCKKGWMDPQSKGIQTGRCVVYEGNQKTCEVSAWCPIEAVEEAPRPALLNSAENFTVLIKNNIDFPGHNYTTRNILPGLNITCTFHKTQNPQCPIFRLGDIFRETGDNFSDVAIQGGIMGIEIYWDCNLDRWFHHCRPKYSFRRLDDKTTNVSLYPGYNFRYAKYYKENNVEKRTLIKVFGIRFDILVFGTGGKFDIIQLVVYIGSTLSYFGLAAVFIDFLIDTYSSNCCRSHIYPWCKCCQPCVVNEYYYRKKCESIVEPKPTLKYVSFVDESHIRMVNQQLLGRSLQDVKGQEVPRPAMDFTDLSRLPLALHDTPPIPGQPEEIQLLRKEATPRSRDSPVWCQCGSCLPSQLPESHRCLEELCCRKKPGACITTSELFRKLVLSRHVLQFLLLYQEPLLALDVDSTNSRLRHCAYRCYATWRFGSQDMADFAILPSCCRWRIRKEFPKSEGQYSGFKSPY
Chain of rat P2X7 (Q64663 whole entry): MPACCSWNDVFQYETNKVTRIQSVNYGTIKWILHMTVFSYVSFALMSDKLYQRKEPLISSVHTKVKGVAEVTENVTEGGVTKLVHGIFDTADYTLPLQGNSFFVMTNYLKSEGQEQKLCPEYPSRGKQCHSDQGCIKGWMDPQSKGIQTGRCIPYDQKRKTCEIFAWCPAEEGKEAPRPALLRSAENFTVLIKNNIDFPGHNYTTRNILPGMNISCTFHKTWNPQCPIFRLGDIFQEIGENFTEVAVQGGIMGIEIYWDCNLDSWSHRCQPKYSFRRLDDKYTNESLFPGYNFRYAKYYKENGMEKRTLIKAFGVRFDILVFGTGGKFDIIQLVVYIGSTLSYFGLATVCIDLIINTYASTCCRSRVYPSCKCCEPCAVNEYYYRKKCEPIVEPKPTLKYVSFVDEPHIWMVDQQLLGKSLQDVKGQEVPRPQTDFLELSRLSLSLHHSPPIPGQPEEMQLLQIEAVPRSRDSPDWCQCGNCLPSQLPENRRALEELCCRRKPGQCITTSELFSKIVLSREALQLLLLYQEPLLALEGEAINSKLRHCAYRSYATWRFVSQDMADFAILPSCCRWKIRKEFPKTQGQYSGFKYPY

For `O=C(NCc1c(F)cc(F)cc1F)[C@]1(F)CC[C@H](O)c2ncccc21` [Example 180, (5S,8S)-5-fluoro-8-hydroxy-N-(2,4,6-trifluorobenzyl)-5,6,7,8-tetrahydroquinoline-5-carboxamide], the IC50 at human P2X7 is less than 50 nM; on rat P2X7 it was less than 1000 nM.
The corresponding values for `O=C1CCC(F)(C(=O)NCc2cccc(C(F)(F)F)c2Cl)c2cccnc21` (stereo not shown) [Example 13, N-(2-chloro-3-(trifluoromethyl)benzyl)-5-fluoro-8-oxo-5,6,7,8-tetrahydro-quinoline-5-carboxamide] are less than 50 nM and less than 1000 nM.
The corresponding values for `O=C(NCc1ccc(F)cc1F)[C@@H]1CC[C@H](O)c2ncccc21` [Example 74, (5R,8S)-N-(2,4-difluoro-benzyl)-8-hydroxy-5,6,7,8-tetrahydroquinoline-5-carboxamide] are 101 to 300 nM and less than 1000 nM.
Take `CC1(O)CCC(F)(C(=O)NCc2cccc(C(F)(F)F)c2Cl)c2cccnc21` (stereo not shown) [Example 58, N-(2-chloro-3-(trifluoro-methyl)benzyl)-5-fluoro-8-hydroxy-8-methyl-5,6,7,8-tetrahydro-quinoline-5-carboxamide]: the IC50 at human P2X7 was less than 50 nM; on rat P2X7, less than 1000 nM.
The corresponding values for `O=C(NCc1ccc(Cl)cc1Cl)[C@@]1(F)CC[C@](O)(CN2CC(O)C2)c2ncccc21` [Example 279, (5R,8S)-N-(2,4-dichlorobenzyl)-5-fluoro-8-hydroxy-8-((3-hydroxyazetidin-1-yl)methyl)-5,6,7,8-tetrahydroquinoline-5-carboxamide] are less than 50 nM and less than 1000 nM.
`O=C1NC[C@@]2(CC[C@@](F)(C(=O)NCc3ccc(Cl)cc3Cl)c3cccnc32)O1` [Example 292, (5R,5′S)-N-(2,4-dichlorobenzyl)-5′-fluoro-2-oxo-6′,7′-dihydro-5′H-spiro [oxazolidine-5,8′-quinoline]-5′-carboxamide]: the figures for the IC50 against human P2X7 and at rat P2X7 were 50 to 100 nM and less than 1000 nM, respectively.
The corresponding values for `O=C(NCc1cc(F)c(F)cc1Cl)[C@]1(F)CC[C@H](O)c2ncccc21` [Example 163, (5S,8S)-N-(2-chloro-4,5-difluorobenzyl)-5-fluoro-8-hydroxy-5,6,7,8-tetrahydroquinoline-5-carboxamide] are less than 50 nM and less than 1000 nM.
With `O=C(NCc1cccc(C(F)(F)F)c1Cl)[C@]1(F)CC[C@@H](O)c2ncccc21` [Example 102, (5S,8R)-N-(2-chloro-3-(trifluoromethyl)benzyl)-5-fluoro-8-hydroxy-5,6,7,8-tetrahydroquinoline-5-carboxamide], the IC50 against human P2X7 was less than 50 nM; at rat P2X7, less than 1000 nM.
With `O=C(NCc1cccc(Cl)c1)[C@]1(F)CC[C@H](O)c2ncccc21` [Example 205, (5S,8S)-N-(3-chlorobenzyl)-5-fluoro-8-hydroxy-5,6,7,8-tetrahydroquinoline-5-carboxamide], the IC50 on human P2X7 is 50 to 100 nM; on rat P2X7 it was less than 1000 nM.
The corresponding values for `C[C@H](NC(=O)[C@]1(F)CC[C@H](O)c2ncccc21)c1ccc(Cl)c(Cl)c1Cl` [Example 168, (5S,8S)-5-fluoro-8-hydroxy-N-((S)-1-(2,3,4-trichlorophenyl)ethyl)-5,6,7,8-tetrahydroquinoline-5-carboxamide] are 101 to 300 nM and less than 1000 nM.
Regarding `O=C1CCC(C(=O)NCc2cccc(C(F)(F)F)c2Cl)c2cccnc21` (stereo not shown) [Example 2, N-(2-chloro-3-(trifluoromethyl)benzyl)-8-oxo-5,6,7,8-tetrahydroquinoline-5-carboxamide], the IC50 at human P2X7 was less than 50 nM; on rat P2X7, less than 1000 nM.
Take `O=C1CC[C@@](F)(C(=O)NCc2ccc(Cl)cc2Cl)c2cccnc21` [Example 248, (S)-N-(2,4-dichloro-benzyl)-5-fluoro-8-oxo-5,6,7,8-tetrahydroquinoline-5-carboxamide]: the IC50 at human P2X7 was less than 50 nM; on rat P2X7 it was less than 1000 nM.
The corresponding values for `CC1(O)CN(C[C@]2(O)CC[C@@](F)(C(=O)NCc3ccc(F)cc3Cl)c3cccnc32)C1` (relative stereo) [Example 54, (5S*,8R*)-N-(2-chloro-4-fluorobenzyl)-5-fluoro-8-hydroxy-8-((3-hydroxy-3-methylazetidin-1-yl)methyl)-5,6,7,8-tetra-hydroquinoline-5-carboxamide] are less than 50 nM and less than 1000 nM.
The corresponding values for `N#CC[C@]1(O)CC[C@@](F)(C(=O)NCc2c(Cl)cc(F)cc2CO)c2cccnc21` [Example 284, (5S,8R)-N-(2-chloro-4-fluoro-6-(hydroxymethyl)benzyl)-8-(cyanomethyl)-5-fluoro-8-hydroxy-5,6,7,8-tetrahydroquinoline-5-carboxamide] are less than 50 nM and less than 1000 nM.
